Experiments:
Format in all cases: functional, cell-based
MDA-MB-231 = experiment: Cytotoxicity against human MDA-MB-231 cells assessed as inhibition of cell growth incubated for 72 hrs by CCK-8 assay; settings: MDA-MB-231, 72 h
A549 = experiment: Cytotoxicity against human A549 cells assessed as inhibition of cell growth incubated for 72 hrs by CCK-8 assay; settings: A549, 72 h
HCT-116 = experiment: Cytotoxicity against human HCT-116 cells assessed as inhibition of cell growth incubated for 72 hrs by CCK-8 assay; settings: HCT-116, 72 h

In the case of `CC(=O)O[C@H]1C[C@H]([C@H](C)[C@@H]2OC(=O)C(C)=C(C)[C@@H]2O)[C@@]2(C)CC[C@H]3[C@@H](C[C@H]4O[C@]45[C@@H](O)C=CC(=O)[C@]35C)[C@@]12O`, the IC50 (MDA-MB-231) is reported as > 10 µM, the IC50 (A549) is reported as 9.7 µM and the IC50 (HCT-116) is reported as 8.5 µM.

With `CCO[C@H]1CC(=O)[C@]2(C)[C@H]3CC[C@@]4(C)[C@@](O)([C@@H]3C[C@H]3O[C@]32[C@H]1O)[C@@H](OC(C)=O)[C@@H]1O[C@@]14[C@H](C)[C@H]1CC(C)=C(C)C(=O)O1` the IC50 (MDA-MB-231) was > 10 µM, the IC50 (A549) was > 10 µM and the IC50 (HCT-116) was > 10 µM.

In the case of `CC1=C(C)C(=O)O[C@@H]([C@@H](C)C2=C[C@H](O)[C@]3(O)[C@@H]4C[C@H]5O[C@]56[C@@H](O)CCC(=O)[C@]6(C)[C@H]4CC[C@]23C)C1`, the IC50 (MDA-MB-231) is reported as > 10 µM, the IC50 (A549) is reported as > 10 µM and the IC50 (HCT-116) is reported as > 10 µM.

`CC(=O)O[C@H]1C[C@](O)([C@H](C)[C@H]2CC(C)=C(C)C(=O)O2)[C@@]2(C)CC[C@H]3[C@@H](C[C@H]4O[C@]45[C@@H](O)C=CC(=O)[C@]35C)[C@@]12O` was tested, and the IC50 (MDA-MB-231) was 4.5 µM, the IC50 (A549) was 5.9 µM and the IC50 (HCT-116) was 1.8 µM.

For `CCO[C@H]1CC(=O)[C@]2(C)[C@H]3CC[C@]4(C)C([C@H](C)[C@H]5CC(C)=C(C)C(=O)O5)=C[C@H](OC(C)=O)[C@]4(O)[C@@H]3C[C@H]3O[C@]32[C@H]1O`, the IC50 (MDA-MB-231) was > 10 µM, the IC50 (A549) was > 10 µM and the IC50 (HCT-116) was > 10 µM.

In the case of `CC(=O)O[C@H]1[C@H](O)[C@](O)([C@H](C)[C@H]2CC(C)=C(C)C(=O)O2)[C@@]2(C)CC[C@H]3[C@@H](C[C@H]4O[C@]45[C@@H](O)C=CC(=O)[C@]35C)[C@@]12O`, the IC50 (MDA-MB-231) is reported as 9.1 µM, the IC50 (A549) is reported as > 10 µM and the IC50 (HCT-116) is reported as 7.2 µM.

`CC(=O)O[C@H]1[C@@H]2O[C@]2([C@@H](C)[C@H]2CC(C)=C(C)C(=O)O2)[C@@]2(C)CC[C@H]3[C@@H](C[C@H](Cl)[C@]4(O)CC=CC(=O)[C@]34C)[C@@]12O` was tested, and the IC50 (MDA-MB-231) was > 10 µM, the IC50 (A549) was > 10 µM and the IC50 (HCT-116) was > 10 µM.

In the case of `CC(=O)O[C@H]1C=C([C@H](C)[C@H]2CC(C)=C(C)C(=O)O2)[C@@]2(C)[C@H](O)C[C@H]3[C@@H](C[C@@H](O)[C@@]4(O)CC=CC(=O)[C@]34C)[C@@]12O`, the IC50 (MDA-MB-231) is reported as > 10 µM, the IC50 (A549) is reported as > 10 µM and the IC50 (HCT-116) is reported as > 10 µM.

For `CC(=O)O[C@H]1C[C@H]([C@H](C)[C@H]2CC(C)=C(C)C(=O)O2)[C@@]2(C)CCC3[C@@H](C[C@@H](O)C4=CC=CC(=O)[C@@]43C)[C@@]12O` (stereo not given in full), the IC50 (MDA-MB-231) was > 10 µM, the IC50 (A549) was > 10 µM and the IC50 (HCT-116) was > 10 µM.

For `CCO[C@H]1CC(=O)[C@]2(C)[C@H]3CC[C@@]4(C)[C@](O)([C@@H](OC(C)=O)C[C@@]4(O)[C@H](C)[C@H]4CC(C)=C(C)C(=O)O4)[C@@H]3C[C@H]3O[C@]32C1`, the IC50 (MDA-MB-231) was > 10 µM, the IC50 (A549) was > 10 µM and the IC50 (HCT-116) was > 10 µM.

With `CO[C@H]1C=C([C@H](C)[C@H]2CC(C)=C(C)C(=O)O2)[C@@]2(C)CC[C@H]3[C@@H](C[C@@H](O)[C@@]4(Cl)CC=CC(=O)[C@]34C)[C@@]12O` the IC50 (MDA-MB-231) was 9.4 µM, the IC50 (A549) was > 10 µM and the IC50 (HCT-116) was 8.8 µM.

For `CCO[C@H]1CC(=O)[C@]2(C)[C@H]3CC[C@]4(C)C([C@H](C)[C@H]5CC(C)=C(C)C(=O)O5)=C[C@H](OC(C)=O)[C@]4(O)[C@@H]3C[C@H]3O[C@]32C1`, the IC50 (MDA-MB-231) was > 10 µM, the IC50 (A549) was > 10 µM and the IC50 (HCT-116) was > 10 µM.

For `CC(=O)O[C@H]1C=C([C@H](C)[C@H]2CC(C)=C(C)C(=O)O2)[C@@]2(C)CC[C@H]3[C@@H](C[C@H]4O[C@]45C[C@@H](O)CC(=O)[C@]35C)[C@@]12O`, the IC50 (MDA-MB-231) was > 10 µM, the IC50 (A549) was > 10 µM and the IC50 (HCT-116) was > 10 µM.

For `CC(=O)O[C@H]1C=C([C@H](C)[C@H]2CC(C)=C(C)C(=O)O2)[C@@]2(C)CC[C@H]3[C@@H](CC(=O)C4CC=CC(=O)[C@@]43C)[C@@]12O` (stereo not given in full), the IC50 (MDA-MB-231) was > 10 µM, the IC50 (A549) was > 10 µM and the IC50 (HCT-116) was 9.2 µM.

With `CCO[C@H]1CC(=O)[C@]2(C)[C@H]3CC[C@]4(C)[C@@H]([C@H](C)[C@H]5CC(C)=C(C)C(=O)O5)C[C@H](O)[C@]4(O)[C@@H]3C[C@H]3O[C@]32[C@H]1O` the IC50 (MDA-MB-231) was > 10 µM, the IC50 (A549) was > 10 µM and the IC50 (HCT-116) was > 10 µM.

— ChEMBL document CHEMBL5357007, “Withanolides from Physalis angulata var. villosa and the Relative Configurational Revision of Some Known Analogs” (J Nat Prod, 2024)
